Source: patent publication US10947188B2, “Small molecule ferroptosis inducers” (THE TRUSTEES OF COLUMBIA UNIVERSITY IN THE CITY OF NEW YORK, priority 2016, dated 2021)

Legend:
[1] = Cobalt (II) binding assay in vitro (absorbance spectrum); conditions: absorbance 300-700 nm
Method: For each cluster I compound (CIL13, −52, and −64), prepared two-fold dilution series with DMSO. We added 30 μL per well of either water or 10 μM cobalt (II) chloride solution to each well of a 384-well plate. Dilution series of each compound in DMSO were added by 10 μL per well. After solutions had been mixed by shaking of the plate using a Victor 3 plate reader (PerkinElmer), absorbance was scanned between 300 and 700 nm for each compound. Finally the following Absorbance value for each compound was plotted (see FIG. 9B):
[formula] where Abs is the absorbance at each wavelength. Search of Commercially Available Structural Analogs of CIL41/70.

BJeLR = assay: Modulatory profiling: Alamar Blue viability, lethal compound cotreated with death modulator (EC50, AUC); format: cell-based, human; design: AUC, modulator BJ.Gd3+ / AUC, modulator BJ.LNAME / AUC, modulator BJ.Lmin / AUC, modulator BJ.3MA / AUC, modulator BJ.ALLN / AUC, modulator BJ.Boc D / AUC, modulator BJ.CHX / AUC, modulator BJ.Co2+ / AUC, modulator BJ.Nec-1 / AUC, modulator BJ.Pepstatin / AUC, modulator BJ.TLCK / AUC, modulator BJ.atoc / AUC, modulator BJ.trolox / AUC, modulator BJ.zVAD: unit not given beside the values; conditions: for AUC, modulator BJ.3MA / AUC, modulator BJ.ALLN / AUC, modulator BJ.Boc D / AUC, modulator BJ.CHX / AUC, modulator BJ.Co2+ / AUC, modulator BJ.DPQ / AUC, modulator BJ.Gd3+ / AUC, modulator BJ.LNAME / AUC, modulator BJ.Lmin/NAD+ / AUC, modulator BJ.Lmin / AUC, modulator BJ.NAD+ / AUC, modulator BJ.NMMA / AUC, modulator BJ.Nec-1 / AUC, modulator BJ.Pepstatin / AUC, modulator BJ.TLCK: BJeLR cells, modulatory profile value (AUC); for AUC, modulator BJ.3MA: lethal compound cotreated with modulator 3MA; for AUC, modulator BJ.ALLN: lethal compound cotreated with modulator ALLN; for AUC, modulator BJ.Boc D: lethal compound cotreated with modulator Boc D; for AUC, modulator BJ.CHX: lethal compound cotreated with modulator CHX; for AUC, modulator BJ.Co2+: lethal compound cotreated with modulator Co2+; for AUC, modulator BJ.DPQ: lethal compound cotreated with modulator DPQ; for AUC, modulator BJ.Gd3+: lethal compound cotreated with modulator Gd3+; for AUC, modulator BJ.LNAME: lethal compound cotreated with modulator LNAME; for AUC, modulator BJ.Lmin/NAD+: lethal compound cotreated with modulator Lmin/NAD+; for AUC, modulator BJ.Lmin: lethal compound cotreated with modulator Lmin; for AUC, modulator BJ.NAD+: lethal compound cotreated with modulator NAD+; for AUC, modulator BJ.NMMA: lethal compound cotreated with modulator NMMA; for AUC, modulator BJ.Nec-1: lethal compound cotreated with modulator Nec-1; for AUC, modulator BJ.Pepstatin: lethal compound cotreated with modulator Pepstatin; for AUC, modulator BJ.TLCK: lethal compound cotreated with modulator TLCK; for EC50: Homo sapiens, BJeLR, 48 h
HT-1080 = assay: as above; format: cell-based; design: AUC, modulator HT.3MA / AUC, modulator HT.ALLN / AUC HT.ATA / AUC HT.ActD / AUC HT.BHA / AUC HT.BHT / AUC HT.BocD / AUC HT.CHX / AUC HT.Co2+ / AUC HT.DPQ / AUC HT.EGTA / AUC HT.Lmim / AUC HT.NAD+ / AUC HT.Nec-1 / AUC HT.SP600125 / AUC HT.TLCK / AUC HT.U0126: unit not given beside the values; conditions: for AUC HT.ATA: HT-1080, modulator ATA; for AUC HT.ActD: HT-1080, modulator ActD; for AUC HT.BHA: HT-1080, modulator BHA; for AUC HT.BHT: HT-1080, modulator BHT; for AUC HT.BocD: HT-1080, modulator BocD; for AUC HT.CHX: HT-1080, modulator CHX; for AUC HT.Co2+: HT-1080, modulator Co2+; for AUC HT.CspA: HT-1080, modulator CspA; for AUC HT.DPQ: HT-1080, modulator DPQ; for AUC HT.EGTA: HT-1080, modulator EGTA; for AUC HT.Gd3+: HT-1080, modulator Gd3+; for AUC HT.LNAME: HT-1080, modulator LNAME; for AUC HT.Lmim: HT-1080, modulator Lmim; for AUC HT.NAD+: HT-1080, modulator NAD+; for AUC HT.NMMA: HT-1080, modulator NMMA; for HT.atoc (AUC) / HT.bCarotene (AUC) / HT.deferox (AUC) / HT.digoxin (AUC) / HT.trolox (AUC) / HT.zVAD (AUC) / EC50: HT-1080; for HT.atoc (AUC): modulator atoc; for HT.bCarotene (AUC): modulator bCarotene; for HT.deferox (AUC): modulator deferox; for HT.digoxin (AUC): modulator digoxin; for HT.trolox (AUC): modulator trolox; for HT.zVAD (AUC): modulator zVAD; for EC50: Homo sapiens, HT-1080, 48 h, 48 h
HT-1080 cells [2] = assay: Cell viability assay (Alamar Blue), lethal compounds with or without modulators; format: cell-based
Method: 1,000 cells per 36 μl were seeded in each well in 384-well plates. Lethal compounds were dissolved, and a twofold, 12-point dilution series was prepared in DMSO. Compound solutions were further diluted with media at 1:25, and 4 μl per well of the diluted solutions was added to cell cultures immediately after cells were seeded. […] When other cell-death-modulating compounds (100 nM sodium selenite, 1 μM cerivastatin, 100 μg/mL mevalonic acid) were used in cotreatments, they were supplemented to cell culture for 24 h before lethal compounds were added to cell culture, after which cells were further incubated for 24 h at 37° C. under 5% CO2. On the day of the viability measurement, we added 10 μl per well of 50% Alamar Blue diluted in media (Life Technologies) and further incubated the cells at 37° C. for 6 h. Fluorescence intensity (excitation/emission: 530/590) was measured with a Victor 3 plate reader (PerkinElmer), and the normalized viability was calculated as VL=(IL−I0)/(IV−I0), where VL, I0, IV, and IL are the normalized viability and the raw fluorescence intensities from the wells containing media, cells treated with a vehicle (negative control), and cells with the lethal compound (L), respectively. When the effect of a chemical modulator (M) on L was calculated, we instead used the equation VL|M=(IM,L−I0)/(IM,V−I0), where VL|M, IM,L and IM,V are the normalized viability, and fluorescence intensity from cells treated with […], respectively. The viability was typically measured in biological triplicate unless otherwise specified. A representative dose-response curve, the mean and standard error of normalized viability from one replicate were plotted. […]

HT-1080 cells [3] = assay: Analysis of lipid ROS generation (C11-BODIPY 581/591 flow cytometry); format: cell-based; conditions: HT-1080; 6 h; with or without deferoxamine
Method: Cells were treated with test compounds, trypsinized, pelleted, and washed once with PBS. For lipophilic or aqueous ROS detection, cells were re-suspended in Hanks' Balanced Salt Solution (HBSS; […] Cells were then pelleted, re-suspended in 500 μL HBSS, strained through a 40-μm cell strainer (BD Falcon), and analyzed using a BD Accuri C6 flow cytometer (BD Biosciences). Both dyes were measured in the FL1 channel. Experiments were done in biological triplicates.

[4] = tested on: BJeLR, DRD, BJeHLT, and BJeH; assay: Viability of four engineered BJ cell lines (HRAS G12V selectivity); format: cell-based, human; conditions: 48 h
[5] = cotreated with antioxidant Trolox
[6] = cotreated with iron-chelator Lmim

Compound: C(=N\Nc1nc2ccccc2s1)/c1ccccn1 [CIL52]
- binding to cobalt (II) in vitro [1]: bound to cobalt (II) in vitro
- AUC, modulator BJ.3MA (BJeLR): 0.0119
- AUC, modulator BJ.ALLN (BJeLR): 0.01092
- AUC, modulator BJ.Boc D (BJeLR): 0.0184
- AUC, modulator BJ.CHX (BJeLR): 0.03724
- AUC, modulator BJ.Co2+ (BJeLR): 0.7978
- AUC, modulator BJ.DPQ (BJeLR): 0.03648
- AUC, modulator BJ.Gd3+ (BJeLR): 0.08327
- AUC, modulator BJ.LNAME (BJeLR): −0.01578
- AUC, modulator BJ.Lmin/NAD+ (BJeLR): 0.08265
- AUC, modulator BJ.Lmin (BJeLR): 0.007783
- AUC, modulator BJ.NAD+ (BJeLR): 0.09321
- AUC, modulator BJ.NMMA (BJeLR): −0.006118
- AUC, modulator BJ.Nec-1 (BJeLR): 0.03888
- AUC, modulator BJ.Pepstatin (BJeLR): 0.02196
- AUC, modulator BJ.TLCK (BJeLR): 0.284
- AUC HT.ATA (HT-1080): 0.03417
- AUC HT.ActD (HT-1080): 0.07379
- AUC HT.BHA (HT-1080): −0.01302
- AUC HT.BHT (HT-1080): −0.06719
- AUC HT.BocD (HT-1080): 0.008582
- AUC HT.CHX (HT-1080): 0.1474
- AUC HT.Co2+ (HT-1080): 0.4155
- AUC HT.CspA (HT-1080): 0.05641
- AUC HT.DPQ (HT-1080): −0.0133
- AUC HT.EGTA (HT-1080): 0.09078
- AUC HT.Gd3+ (HT-1080): −0.006922
- AUC HT.LNAME (HT-1080): −0.009412
- AUC HT.Lmim (HT-1080): 0.02654
- AUC HT.NAD+ (HT-1080): 0.01945
- AUC HT.NMMA (HT-1080): −0.01196
- HT.atoc (AUC) (HT-1080): 0.07146
- HT.bCarotene (AUC) (HT-1080): 0.06784
- HT.deferox (AUC) (HT-1080): 0.2325
- HT.digoxin (AUC) (HT-1080): −0.005506
- HT.trolox (AUC) (HT-1080): −0.03942
- HT.zVAD (AUC) (HT-1080): 0.02339
- effect of cobalt (II) on lethality (HT-1080; modulatory profiles, CoCl2 supplementation): inhibited by cobalt (II)

Compound: O=S(=O)(c1ccc2c(c1)C(=NO)c1cc(S(=O)(=O)N3CCCCC3)ccc1-2)N1CCCCC1 [CIL56, 2,7-bis(piperidin-1-ylsulfonyl)-9H-fluoren-9-one oxime]
- effect of ferroptosis inhibitors (α-tocopherol, deferoxamine) on lethality (HT-1080 cells [2]; HT-1080 cells, cotreatment): suppressed the lethality of low concentrations
- suppression of lethality by antioxidants and iron chelators (HT-1080 cells [2]; ferroptosis-sensitive HT-1080 cells): up to 10 fold
- lipid ROS generation (BODIPY-581/591 C11) (HT-1080 cells [3]): induced iron-dependent ROS
- oncogenic RAS selectivity in the BJ engineered cell line series [4]: retained some degree of selectivity toward oncogenic-RAS-expressing cells
- AUC, modulator BJ.3MA (BJeLR): 0.1459
- AUC, modulator BJ.ALLN (BJeLR): 0.05831
- AUC, modulator BJ.Boc D (BJeLR): −0.01043
- AUC, modulator BJ.CHX (BJeLR): −0.07221
- AUC, modulator BJ.Co2+ (BJeLR): 0.1263
- AUC, modulator BJ.DPQ (BJeLR): 0.03219
- AUC, modulator BJ.Gd3+ (BJeLR): 0.004997
- AUC, modulator BJ.LNAME (BJeLR): 0.005978
- AUC, modulator BJ.Lmin/NAD+ (BJeLR): 0.2194
- AUC, modulator BJ.Lmin (BJeLR): 0.1358
- AUC, modulator BJ.NAD+ (BJeLR): 0.02645
- AUC, modulator BJ.NMMA (BJeLR): 0.0004905
- AUC, modulator BJ.Nec-1 (BJeLR): 0.2368
- AUC, modulator BJ.Pepstatin (BJeLR): 0.03545
- AUC, modulator BJ.TLCK (BJeLR): 0.1986
- EC50 (BJeLR; DMSO): 0.213 µM
- EC50 (BJeLR; cotreated with Lmim_NAD): 1.3 µM
- EC50 (BJeLR; [5]): 2.03 µM
- EC50 (BJeLR; cotreated with antioxidant atoc): 2.49 µM
- EC50 (BJeLR; [6]): 0.925 µM
- AUC HT.ATA (HT-1080): −0.01939
- AUC HT.ActD (HT-1080): −0.124
- AUC HT.BHA (HT-1080): 0.1774
- AUC HT.BHT (HT-1080): 0.0146
- AUC HT.BocD (HT-1080): −0.0127
- AUC HT.CHX (HT-1080): −0.07234
- AUC HT.Co2+ (HT-1080): 0.01296
- AUC HT.CspA (HT-1080): 0.01564
- AUC HT.DPQ (HT-1080): 0.06245
- AUC HT.EGTA (HT-1080): 0.02378
- AUC HT.Gd3+ (HT-1080): −0.01542
- AUC HT.LNAME (HT-1080): 0.05375
- AUC HT.Lmim (HT-1080): 0.1017
- AUC HT.NAD+ (HT-1080): 0.02315
- AUC HT.NMMA (HT-1080): −0.01475
- HT.atoc (AUC) (HT-1080): 0.2436
- HT.bCarotene (AUC) (HT-1080): 0.05423
- HT.deferox (AUC) (HT-1080): 0.1269
- HT.digoxin (AUC) (HT-1080): −0.1402
- HT.trolox (AUC) (HT-1080): 0.1421
- HT.zVAD (AUC) (HT-1080): 0.03666
- effect of ferroptosis inhibitors (iron chelators and lipophilic antioxidants) on lethality in modulatory profiling (HT-1080; HT-1080 and BJeLR): suppression by canonical ferroptosis inhibitors
- EC50 (HT-1080; DMSO): 0.443 µM
- EC50 (HT-1080; cotreated with MEK inh U0126): 2.81 µM
- EC50 (HT-1080; cotreated with antioxidant Atoc): 2.49 µM
- EC50 (HT-1080; cotreated with antioxidant BHA): 2.65 µM
- EC50 (HT-1080; cotreated with antioxidant BHT): 1.69 µM
- EC50 (HT-1080; [5]): 1.31 µM
- EC50 (HT-1080; cotreated with iron-chelator Deferoxamine): 1.36 µM
- EC50 (HT-1080; [6]): 1.53 µM
